In patent US5405831A, “Treatment of bone disorders” (Amylin Pharmaceuticals, Inc., priority 1989, dated 1995):
Where two headings read alike, the source gives them in different places.

Legend:
rabbit = conditions: cited from earlier work
rat osteoclasts [1] = conditions: Zaidi et al. 1988; cited from earlier work
chick = conditions: higher doses; cited from earlier work
rat osteoclasts [2] = assay: bone resorption assay (disaggregated rat osteoclasts on human cortical bone slices); conditions: osteoclasts counted on hormone-treated versus control bone slices
Experimental: Following incubation (37° C.; 15 minutes), the bone slices were removed, washed gently in Minimal Essential Medium with FCS (10%, v/v) (MEM/FCS) and placed in separate wells (each well contained 5-6 slices and 900 μl MEM/FCS). Either one or two homogeneous suspensions of osteoclasts were used for each experiment. When two suspensions were used, the experiment was divided into two blocks, each of which included all treatments and one suspension. After further incubation (37° C., 10% humidified CO2, 10 minutes), 100 μl of MEM/FCS containing the test substance was added. Finally, bone slices were incubated overnight (37° C., 10% humidified CO2, 18 hours) and quantified in terms of cell numbers and bone resorption. After fixation in glutaraldehyde, cells were stained with toluidine blue and examined by transmitted light microscopy. In order to rule out toxic effects, osteoclasts were counted on three slices for every variable and their numbers were then compared on hormone-treated and control bone slices. […] Osteoclastic excavations, each defined by a continuous border within an area of unresorbed bone were counted. The area of bone surface resorbed was calculated by tracing the outline of the concavities into an image processor (Sight Systems, Newbury, Berks).

isolated osteoclasts = assay: functional responses of isolated osteoclasts (motility, cytosolic calcium, retraction); assay type: cell-based
Source text: Thus, it appears that osteoclast activity may be restrained via two receptor types; calcitonin acts at both while amylin acts mainly via only one, reducing motility, reducing resorption and probably acting via the second messenger cAMP (Zaidi et. al. 1990, J. Endocrinol 126, 473-481.

In the case of CGRP, the “effect on plasma calcium” value (rabbit; rabbit, higher doses) is given as “parathyroid hormone-like hypercalcemic effect”, the “effect on plasma calcium” value (rabbit; rabbits, lower doses) is given as “hypocalcaemic” and the osteoclastic bone resorption (rat osteoclasts [1]) is given as “inhibits osteoclastic bone resorption”. The “effect on plasma calcium” value (chick) was “parathyroid hormone-like hypercalcemic effect”.

With `CC[C@H](C)[C@H](NC(=O)[C@H](C)NC(=O)CNC(=O)[C@H](Cc1ccccc1)NC(=O)[C@H](CC(N)=O)NC(=O)[C@H](CC(N)=O)NC(=O)[C@H](CO)NC(=O)[C@H](CO)NC(=O)[C@H](Cc1c[nH]cn1)NC(=O)[C@@H](NC(=O)[C@H](CC(C)C)NC(=O)[C@H](Cc1ccccc1)NC(=O)[C@H](CC(N)=O)NC(=O)[C@H](C)NC(=O)[C@H](CC(C)C)NC(=O)[C@H](CCCNC(=N)N)NC(=O)[C@H](CCC(N)=O)NC(=O)[C@@H](NC(=O)[C@H](C)NC(=O)[C@@H]1CSSC[C@H](NC(=O)[C@@H](N)CCCCN)C(=O)N[C@@H](CC(N)=O)C(=O)N[C@@H]([C@@H](C)O)C(=O)N[C@@H](C)C(=O)N[C@@H]([C@@H](C)O)C(=O)N1)[C@@H](C)O)C(C)C)C(=O)N[C@@H](CC(C)C)C(=O)N[C@@H](CO)C(=O)N[C@@H](CO)C(=O)N[C@H](C(=O)N[C@@H](CC(N)=O)C(=O)N[C@H](C(=O)NCC(=O)N[C@@H](CO)C(=O)N[C@@H](CC(N)=O)C(=O)N[C@H](C(=O)N[C@@H](Cc1ccc(O)cc1)C(N)=O)[C@@H](C)O)C(C)C)[C@@H](C)O` [amylin] the “osteoclast cell number or viability” value (rat osteoclasts [2]) was “without affecting cell number of viability”.

With calcitonin the cell retraction (isolated osteoclasts) was “caused cell retraction”, the cytosolic calcium (isolated osteoclasts) was “elevated cytosolic calcium” and the osteoclast motility (isolated osteoclasts) was “inhibited osteoclast motility”.
